For one experiment, the target named is KRas G12D (Homo sapiens, UniProt P01116, G12D). Kind of experiment: biochemical.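 Note: TR-FRET displacement binding assay on KRas, read after a one-hour incubation at room temperature, IC50 fitted from percent-of-control values.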
Another experiment deals with KRas G12V (Homo sapiens, UniProt P01116, G12V). The experiment in a line: biochemical.
The target in the next experiment is KRas G12R (Homo sapiens, UniProt P01116, G12R). Kind of experiment: biochemical.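 Note: TR-FRET displacement assay of compound binding to KRas, read after one hour at room temperature, potency from a four-parameter fit of percent-of-control values.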
Sequence of KRas G12R (P01116 1-169 isoform P01116-2 G12R): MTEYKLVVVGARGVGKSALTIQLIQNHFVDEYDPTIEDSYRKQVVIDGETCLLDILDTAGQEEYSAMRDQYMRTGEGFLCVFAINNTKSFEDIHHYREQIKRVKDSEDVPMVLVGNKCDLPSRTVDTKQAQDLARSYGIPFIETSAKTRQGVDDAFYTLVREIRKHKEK
A further experiment has as its system pERK in MKN1 cells. The experiment in a line: Inhibition of KRas phosphorylation of ERK (Cisbio HTRF pERK assay). To be noted: Homo sapiens, MKN-1, 3 h, read-out: Inhibition (HTRF IC50) of KRas-mediated Phosphorylation of ERK, MKN1. In general terms: TR-FRET usually uses a lanthanide donor and a delayed reading to cut background.
A further experiment has as its system pERK in PSN1 cells. The description is as above. To be noted: Homo sapiens, PSN1, 3 h, read-out: Inhibition (HTRF IC50) of KRas-mediated Phosphorylation of ERK, PSN1.
Another experiment concerns pERK in ASPC1 cells. Described as above. To be noted: Homo sapiens, ASPC1, read-out: Inhibition (HTRF IC50) of KRas-mediated Phosphorylation of ERK, AsPC-1.
A further experiment deals with pERK in H727 cells. Described as above. To be noted: Homo sapiens, NCI-H727, read-out: Inhibition (HTRF IC50) of KRas-mediated Phosphorylation of ERK, H727.
Another experiment concerns pERK in A549 cells. The description is as above. To be noted: Homo sapiens, A549, read-out: Inhibition (HTRF IC50) of KRas-mediated Phosphorylation of ERK, A549.
A further experiment deals with pERK in H460 cells. The description is as above. To be noted: Homo sapiens, NCI-H460, read-out: Inhibition (HTRF IC50) of KRas-mediated Phosphorylation of ERK, H460.
In a further experiment the test system is pERK in HCT116 cells. Described as above. To be noted: Homo sapiens, HCT-116, read-out: Inhibition (HTRF IC50) of KRas-mediated Phosphorylation of ERK, HCT116.
The next experiment relates to pERK in H358 cells. The experiment is described as above. To be noted: Homo sapiens, NCI-H358, read-out: Inhibition (HTRF IC50) of KRas-mediated Phosphorylation of ERK, H358.

SMILES strings stand for the structures.

Sequence of KRas G12V (P01116 1-169 isoform P01116-2 G12V): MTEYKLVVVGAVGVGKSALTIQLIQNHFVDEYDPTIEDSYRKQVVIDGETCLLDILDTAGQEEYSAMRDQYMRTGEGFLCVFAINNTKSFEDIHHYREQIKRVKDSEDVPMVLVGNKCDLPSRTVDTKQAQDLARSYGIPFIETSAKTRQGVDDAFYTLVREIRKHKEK
Sequence of KRas G12D (P01116 1-169 isoform P01116-2 G12D): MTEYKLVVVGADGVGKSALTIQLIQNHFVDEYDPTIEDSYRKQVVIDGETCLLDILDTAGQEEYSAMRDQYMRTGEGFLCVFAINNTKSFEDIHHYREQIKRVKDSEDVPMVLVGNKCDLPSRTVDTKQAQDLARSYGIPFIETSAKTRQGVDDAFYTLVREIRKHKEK

On to `C[C@@]1(O)CCCN(c2nc(OC[C@@]34CCCN3C[C@H](F)C4)nc3c(F)c(-c4cc(O)cc5ccc(F)c(Cl)c45)ncc23)C1` [Example 418, (R)-1-(7-(8-chloro-7-fluoro-3-hydroxynaphthalen-1-yl)-8-fluoro-2-(((2R,7aS)-2-fluorohexahydro-1H-pyrrolizin-7a-yl)methoxy)pyrido[4,3-d]pyrimidin-4-yl)-3-methylpiperidin-3-ol], for which the IC50 is at most 0.002 µM against KRas G12D; at most 0.002 µM against KRas G12V; 0.003 µM at KRas G12R; 0.003 µM in the experiment on pERK in MKN1 cells; 0.596 µM with pERK in PSN1 cells; 0.025 µM with pERK in ASPC1 cells. Further, the IC50 in the experiment on pERK in H727 cells was 0.032 µM; in the experiment on pERK in A549 cells, 0.074 µM; in the experiment on pERK in H460 cells, 0.052 µM; with pERK in HCT116 cells it was 0.06 µM; in the experiment with pERK in H358 cells it was 0.011 µM.

In the case of `CCc1c(F)ccc2cc(O)cc(-c3ncc4c(N5CCCn6nc(C(=O)N7CCN(C)CC7)cc6C5)nc(OC[C@@]56CCCN5C[C@H](F)C6)nc4c3F)c12` [Example 477, (5-(7-(8-ethyl-7-fluoro-3-hydroxynaphthalen-1-yl)-8-fluoro-2-(((2R,7aS)-2-fluorotetrahydro-1H-pyrrolizin-7a(5H)-yl)methoxy)pyrido[4,3-d]pyrimidin-4-yl)-5,6,7,8-tetrahydro-4H-pyrazolo[1,5-a][1,4]diazepin-2-yl)(4-methylpiperazin-1-yl)methanone], the IC50 was at most 0.002 µM against KRas G12D; at most 0.002 µM at KRas G12V; at most 0.002 µM at KRas G12R; 0.067 µM in the experiment with pERK in MKN1 cells; at least 10 µM in the experiment with pERK in PSN1 cells; 0.061 µM with pERK in ASPC1 cells. For the same compound, the IC50 was 0.456 µM in the experiment with pERK in H727 cells; 0.865 µM in the experiment on pERK in A549 cells; 1.57 µM with pERK in H460 cells; 2.83 µM in the experiment with pERK in HCT116 cells; 0.18 µM with pERK in H358 cells.

For the compound `CCc1c(F)ccc2cc(O)cc(-c3ncc4c(N5CCCn6nc(C(=O)N7CCOCC7)cc6C5)nc(OC[C@@]56CCCN5C[C@H](F)C6)nc4c3F)c12` [Example 354, (5-(7-(8-ethyl-7-fluoro-3-hydroxynaphthalen-1-yl)-8-fluoro-2-(((2R,7aS)-2-fluorohexahydro-1H-pyrrolizin-7a-yl)methoxy)pyrido[4,3-d]pyrimidin-4-yl)-5,6,7,8-tetrahydro-4H-pyrazolo[1,5-a][1,4]diazepin-2-yl)(morpholino)methanone], the IC50 on KRas G12D was at most 0.002 µM; against KRas G12V it was at most 0.002 µM; against KRas G12R it was at most 0.002 µM; in the experiment on pERK in MKN1 cells, 0.014 µM; in the experiment on pERK in PSN1 cells, at least 10 µM; in the experiment on pERK in ASPC1 cells, 0.014 µM. Moreover, the IC50 in the experiment on pERK in H727 cells is 0.048 µM; in the experiment on pERK in A549 cells it was 0.065 µM; in the experiment on pERK in H460 cells, 0.304 µM; in the experiment with pERK in HCT116 cells it was 0.623 µM; in the experiment on pERK in H358 cells, 0.017 µM.

In the case of `CCc1c(F)ccc2cc(O)cc(-c3ncc4c(N5CCCn6nc(C(=O)NC(C)C)cc6C5)nc(OC[C@@]56CCCN5C[C@H](F)C6)nc4c3F)c12` [Example 357, 5-(7-(8-ethyl-7-fluoro-3-hydroxynaphthalen-1-yl)-8-fluoro-2-(((2R,7aS)-2-fluorohexahydro-1H-pyrrolizin-7a-yl)methoxy)pyrido[4,3-d]pyrimidin-4-yl)-N-isopropyl-5,6,7,8-tetrahydro-4H-pyrazolo[1,5-a][1,4]diazepine-2-carboxamide], the IC50 on KRas G12D is at most 0.002 µM; against KRas G12V, at most 0.002 µM; against KRas G12R it was at most 0.002 µM; with pERK in MKN1 cells, 0.071 µM; in the experiment with pERK in PSN1 cells, 7.48 µM; in the experiment with pERK in ASPC1 cells, 0.013 µM. Also, the IC50 in the experiment on pERK in H727 cells amounted to 0.063 µM; in the experiment with pERK in A549 cells it was 0.576 µM; in the experiment on pERK in H460 cells, 0.805 µM; in the experiment with pERK in HCT116 cells, 1.35 µM; in the experiment on pERK in H358 cells, 0.027 µM.

As to `C[C@@]1(O)CCCN(c2nc(OC[C@@]34CCCN3C[C@H](F)C4)nc3c(F)c(-c4cc(O)cc5ccc(F)c(Br)c45)ncc23)C1` [Example 399, (R)-1-(7-(8-bromo-7-fluoro-3-hydroxynaphthalen-1-yl)-8-fluoro-2-(((2R,7aS)-2-fluorohexahydro-1H-pyrrolizin-7a-yl)methoxy)pyrido[4,3-d]pyrimidin-4-yl)-3-methylpiperidin-3-ol], the IC50 is at most 0.002 µM on KRas G12D; at most 0.002 µM at KRas G12V; at most 0.002 µM against KRas G12R; 0.001 µM in the experiment on pERK in MKN1 cells; 0.357 µM with pERK in PSN1 cells; 0.003 µM in the experiment on pERK in ASPC1 cells. Further, the IC50 in the experiment with pERK in H727 cells came out at 0.016 µM; with pERK in A549 cells it was 0.014 µM; in the experiment with pERK in H460 cells, 0.018 µM; with pERK in HCT116 cells it was 0.023 µM; in the experiment on pERK in H358 cells, 0.004 µM.

With `CCc1c(F)ccc2cc(O)cc(-c3ncc4c(N5CCOC[C@@](C)(O)C5)nc(OCC5(CN(C)C)CC5)nc4c3F)c12` [Example 361, (S)-4-(2-((1-((dimethylamino)methyl)cyclopropyl)methoxy)-7-(8-ethyl-7-fluoro-3-hydroxynaphthalen-1-yl)-8-fluoropyrido[4,3-d]pyrimidin-4-yl)-6-methyl-1,4-oxazepan-6-ol], the IC50 against KRas G12D was at most 0.002 µM; against KRas G12V, at most 0.002 µM; at KRas G12R it was at most 0.002 µM; in the experiment with pERK in MKN1 cells it was 0.003 µM; in the experiment with pERK in PSN1 cells, 6.82 µM; in the experiment on pERK in ASPC1 cells, 0.008 µM. Besides, the IC50 with pERK in H727 cells came to 0.049 µM; in the experiment with pERK in A549 cells it was 0.122 µM; in the experiment with pERK in H460 cells it was 0.085 µM; in the experiment with pERK in HCT116 cells, 0.231 µM; with pERK in H358 cells, 0.017 µM.

As for `C#Cc1c(F)ccc2cc(O)cc(-c3ncc4c(N5CCCn6nc(C(=O)N(C)C)cc6C5)nc(OC[C@@]56CCCN5C[C@H](F)C6)nc4c3F)c12` [Example 398, 5-(7-(8-ethynyl-7-fluoro-3-hydroxynaphthalen-1-yl)-8-fluoro-2-(((2R,7aS)-2-fluorohexahydro-1H-pyrrolizin-7a-yl)methoxy)pyrido[4,3-d]pyrimidin-4-yl)-N,N-dimethyl-5,6,7,8-tetrahydro-4H-pyrazolo[1,5-a][1,4]diazepine-2-carboxamide], the IC50 on KRas G12D was at most 0.002 µM; at KRas G12V, at most 0.002 µM; on KRas G12R, at most 0.002 µM; in the experiment with pERK in MKN1 cells, 0.007 µM; in the experiment with pERK in PSN1 cells, 6.69 µM; in the experiment on pERK in ASPC1 cells it was 0.025 µM. Moreover, the IC50 in the experiment on pERK in H727 cells was 0.026 µM; with pERK in A549 cells, 0.102 µM; with pERK in H460 cells it was 0.387 µM; in the experiment with pERK in HCT116 cells, 0.348 µM; in the experiment on pERK in H358 cells, 0.01 µM.

Regarding `Oc1cc(-c2ncc3c(N4CCCC5(CC(O)C5)C4)nc(OC[C@@]45CCCN4C[C@H](F)C5)nc3c2F)c2c(Cl)c(F)ccc2c1` (stereo partly drawn) [Example 425, 6-(7-(8-chloro-7-fluoro-3-hydroxynaphthalen-1-yl)-8-fluoro-2-(((2R,7aS)-2-fluorohexahydro-1H-pyrrolizin-7a-yl)methoxy)pyrido[4,3-d]pyrimidin-4-yl)-6-azaspiro[3.5]nonan-2-ol], the IC50 against KRas G12D is at most 0.002 µM; against KRas G12V, at most 0.002 µM; against KRas G12R it was at most 0.002 µM; in the experiment on pERK in MKN1 cells, 0.005 µM; in the experiment with pERK in PSN1 cells it was 0.921 µM; in the experiment with pERK in ASPC1 cells, 0.042 µM. The IC50 came to 0.037 µM with pERK in H727 cells; 0.054 µM in the experiment with pERK in A549 cells; 0.099 µM in the experiment on pERK in H460 cells; 0.073 µM in the experiment with pERK in HCT116 cells; 0.012 µM with pERK in H358 cells.

The IC50 is the concentration at which inhibition is half-maximal.

These data come from patent US12398154B2, “Azaquinazoline pan-KRas inhibitors” (Mirati Therapeutics, Inc., priority 2020, dated 2025).
